Square brackets hold non-standard residues; d marks the D form. Peptide text beside a SMILES is read from it.
Key:
[1] = system: other opioid receptors; assay: opioid receptor specificity of the tetrapeptide; type: binding
Text: (§1) Two subtypes of μ receptors are recognized: activation of μ1 receptors causes pronounced analgesia, while activation of μ2-receptors leads to respiratory depression, cardiovascular system disturbances such as bradycardia, and suppression of intestinal motility. Therefore, high specificity of the tetrapeptide in question to μ1-opioid receptors ensures the absence of side effects that are typical of most opioid narcotic medications. This tetrapeptide interacts with peripheral and central receptors, although it mostly acts at the spinal level. After the tetrapeptide binds to μ1-receptors, G-protein complex is released, which inhibits the release of neurotransmitters by the cell by reducing the amount of cAMP produced, closing calcium channels and opening potassium channels, which, among other consequences, inhibits the transmission of pain signals in nociceptors. The tetrapeptide activates the antinociceptive system, thereby disrupting interneuronal transmission of pain signals at different levels of the CNS, and changes the intensity of pain perception by acting on the higher brain centres.

[2] = biological target: δ-receptors (Homo sapiens, UniProt P41143); assay: opioid receptor specificity of the tetrapeptide; type: binding
δ-receptors, sequence (P41143 whole entry): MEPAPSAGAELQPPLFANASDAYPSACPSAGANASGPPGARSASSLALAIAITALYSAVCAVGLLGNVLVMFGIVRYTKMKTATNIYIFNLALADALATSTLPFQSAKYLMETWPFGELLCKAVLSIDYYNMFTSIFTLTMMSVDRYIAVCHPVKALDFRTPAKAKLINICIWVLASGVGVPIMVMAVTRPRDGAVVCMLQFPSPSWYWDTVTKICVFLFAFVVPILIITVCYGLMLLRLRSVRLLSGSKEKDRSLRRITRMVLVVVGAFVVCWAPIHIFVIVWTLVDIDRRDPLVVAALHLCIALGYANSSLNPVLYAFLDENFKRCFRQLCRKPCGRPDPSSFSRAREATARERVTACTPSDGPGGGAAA
Text: as §1

[3] = biological target: μ1-opioid receptor (Homo sapiens, UniProt P35372); assay: opioid receptor specificity of the tetrapeptide; type: binding
μ1-opioid receptor, sequence (P35372 whole entry): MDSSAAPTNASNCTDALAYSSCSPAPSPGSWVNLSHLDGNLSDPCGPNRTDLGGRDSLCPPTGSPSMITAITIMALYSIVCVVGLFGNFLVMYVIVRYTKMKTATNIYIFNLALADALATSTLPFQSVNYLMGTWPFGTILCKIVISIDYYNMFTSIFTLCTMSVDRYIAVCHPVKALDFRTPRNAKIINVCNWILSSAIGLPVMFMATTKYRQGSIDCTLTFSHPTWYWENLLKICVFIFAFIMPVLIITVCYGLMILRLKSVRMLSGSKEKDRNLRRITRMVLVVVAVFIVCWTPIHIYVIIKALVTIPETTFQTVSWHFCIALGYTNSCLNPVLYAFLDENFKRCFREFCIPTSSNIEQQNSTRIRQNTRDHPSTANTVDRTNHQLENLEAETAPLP
Text: as §1

[4] = system: patients with early postoperative pain; assay: clinical trial of pain treatment in the early postoperative period, efficacy; type: in vivo, human
Method: (§2) Additional clinical trials focused of the treatment of pain in the early postoperative period after a variety of surgical interventions, including urological, gynaecological and other surgeries.
(§3) If NRS pain intensity score on day two was <4, only paracetamol was administered by IV injection as necessary, and the maximum daily dose was […]. […] Pain was usually brought under control within 1-2 days in the early postoperative period.

[5] = clinical trial of pain treatment in the early postoperative period, safety; type: in vivo, human; conditions: groups treated with Promedol
Method: as §2, §3

[6] = phase III clinical trial, safety in patients with cancer pain
[7] = system: patients with cancer pain; assay: phase III clinical trial, efficacy in patients with cancer pain; type: in vivo, human
Method: Primary efficacy evaluation was performed during the following visits: Visit 1 (day 1 of tetrapeptide treatment), Visit 2 (day 28±2 of tetrapeptide treatment), Visit 3 (day 56±2 of tetrapeptide treatment) and Visit 4 (day 86±2 of tetrapeptide treatment).
Analgesic treatment response maintenance rate by day 28.
Treatment response was considered maintained if all of the following conditions were met: • 1. […] Daily average pain intensity at the end of the 28-day treatment period remains at <50% of the intensity at the start of titration.

[8] = phase II clinical trial, safety in cancer patients experiencing pain
Method: (§4) Pain intensity was evaluated on a numeric rating scale (NRS) from 0 to 10. […] The patients' physical activity score on the Eastern Cooperative Oncology Group (ECOG) performance status scale was 0 to 3, i.e. they were active and were up and about for over 50% of waking hours (grade 2 on the ECOG scale) or were capable of only limited self-care and confined to bed or chair more than 50% of waking hours (grade 3 on the ECOG scale).
(§5) The study was carried out in two stages. The total duration of the trial for each patient was 20 days or less. […] The number of doses depended on pain intensity as evaluated on the NRS scale for each individual patient.
Comments: 1. […] 2. SAE=serious adverse event.

[9] = system: cancer patients with severe cancer pain; assay: phase II clinical trial, efficacy in cancer patients experiencing pain; type: in vivo, human
Method: as §4, §5
The primary efficacy endpoint was the rate of achieving a sufficient analgesic effect throughout the day.

[10] = Promedol 20 mg three times daily
[11] = Promedol 20 mg three times daily on day 1
[12] = investigator-evaluated, Visit 2

## N=C(N)NCCC[C@@H](NC(=O)[C@@H](N)Cc1ccc(O)cc1)C(=O)N[C@@H](Cc1ccccc1)C(=O)NCC(N)=O [H-Tyr-D-Arg-Phe-Gly-NH2, Tyrosyl-D-arginyl-phenylalanyl-glycinamide] (H-Y[dR]FG-NH2)
[1]
  interactions with the other receptors: no interactions with the other receptors have been detected
[2]
  interaction with δ-receptors weaker than with μ-opioid receptors: 3 orders of magnitude
[3]
  opioid receptor activity: highly specific μ1-opioid receptor agonist

## CCC(=O)OC1(c2ccccc2)CC(C)N(C)CC1C (centres unmarked) [Promedol]
[4]; [10]
  daily average NRS pain intensity score: 2.16±0.66
  mean change in pain intensity: 55.44±33.17%
  proportion of patients with greater than 50% pain relief at 1 hour after the initial dose: 50%
[4]; [11]
  patients requiring repeat dosing on day 2 who were dosed three times: 16.67%
  patients requiring repeat dosing on day 2 who were dosed twice: 83.33%
[4]; day 2, Promedol 20 mg three times daily
  daily average NRS pain intensity score: 1.41±1.92
[5]
  patients with AEs: 35%

## CN1CC[C@]23c4c5ccc(O)c4O[C@H]2[C@@H](O)C=C[C@H]3[C@H]1C5 [morphine]
[6]; Period 1
  prevalence of patients with AEs: 71.19%
  total number of AEs reported: 119
[6]; Period 1, % of cases
  AEs mild: 65.55%
  AEs moderate: 33.61%
  AEs severe: 0.84%
  causality between AEs and therapy: certain: 13.44%
  causality between AEs and therapy: conditional: 0.84%
  causality between AEs and therapy: possible: 38.66%
  causality between AEs and therapy: probable: 29.41%
  causality between AEs and therapy: unclassifiable: 0.84%
  causality between AEs and therapy: unlikely: 11.76%
  causality between AEs and therapy: unrelated: 5.04%
[6]; both, human, in vivo, oral
  number of AEs with causality “certain”, “probable” or “possible”: 97
[6]; comprehensive within-group analysis (44/120 vs 43/59)
  prevalence of patients with reported AEs: 72.88%
[7]; Visit 0
  average SF-36 mental health score: 31.42±12.16
  average SF-36 physical health score: 32.22±10.76
[7]; Visit 2
  average SF-36 mental health score: 31.42±12.16
  average SF-36 physical health score: 49.52±11.73
[7]; by Visit 2
  non-responders to therapy: no non-responders
  proportion of patients who required a dose increase: 6.52%
  proportion of patients with at least one episode of breakthrough pain: 2.17%
[7]; by group, at Visit 2
  daily average NRS pain intensity score (Mean±SD): 0.28±0.30
[7]; [12]
  proportion of patients with a “good response” to therapy: 67.39%
  proportion of patients with a “satisfactory response” to therapy: 0.00%
  proportion of patients with an “excellent response” to therapy: 32.61%
[8]; human, in vivo
  dyspnoea / difficulty breathing: difficulty breathing was observed
[8]; stage 2
  Acute heart failure (SAE), % of the total number of AEs for the group: (3.7) %
  Anaemia, % of the total number of AEs for the group: (3.7) %
  Appetite lost, % of the total number of AEs for the group: (7.4) %
  Asthenia, % of the total number of AEs for the group: (14.8) %
  Constipation, % of the total number of AEs for the group: (14.8) %
  Cough, % of the total number of AEs for the group: (3.7) %
  Dizziness postural, % of the total number of AEs for the group: (0) %
  Dizziness, % of the total number of AEs for the group: (3.7) %
  Dry mouth, % of the total number of AEs for the group: (3.7) %
  Flatulence, % of the total number of AEs for the group: (3.7) %
  Insomnia, % of the total number of AEs for the group: (3.7) %
  Multiple organ dysfunction syndrome (SAE), % of the total number of AEs for the group: (3.7) %
  Nausea, % of the total number of AEs for the group: (3.7) %
  Peripheral oedema, % of the total number of AEs for the group: (3.7) %
  Pulmonary oedema (SAE), % of the total number of AEs for the group: (3.7) %
  Sedation, % of the total number of AEs for the group: (7.4) %
  Shortness of breath, % of the total number of AEs for the group: (3.7) %
  Total, % of the total number of AEs for the group: (100) %
  Vomiting, % of the total number of AEs for the group: (3.7) %
[8]; stage 2, 16 patients per group
  incidence of AEs: 50.0%
  number of patients in whom AEs were reported: 8
[8]; stage 2, in 1 patient
  number of SAEs reported: 1
[9]; baseline, all Taphalgin dose subgroups
  average stable daily dose ensuring adequate pain relief: 20.31 mg
[9]; before study, patients of the 2 mg Taphalgin subgroup
  average starting dose: 18.33 mg
[9]; stage 2
  within-group trend of daily average NRS pain intensity scores: flat
[9]; stage 2, day of dosing 11
  daily average NRS pain intensity score: 0.12 ± 0.22
[9]; stage 2, day of dosing 12
  daily average NRS pain intensity score: 0.30 ± 0.38
[9]; stage 2, day of dosing 13
  daily average NRS pain intensity score: 0.24 ± 0.35
[9]; stage 2, day of dosing 14
  daily average NRS pain intensity score: 0.24 ± 0.35
[9]; stage 2, day of dosing 15
  daily average NRS pain intensity score: 0.28 ± 0.30
[9]; stage 2, day of dosing 16
  daily average NRS pain intensity score: 0.17 ± 0.21
[9]; stage 2, day of dosing 17
  daily average NRS pain intensity score: 0.17 ± 0.23

From patent US20240239840A1, “method for the treatment of pain and a medicinal product for administration during pain” (PVP LABS PTE.LTD., priority 2023, published 2024)
